Measured values: US20250171426A1, “PYRIMIDINEDIONE-BASED COMPOUNDS AS AXL, C-MET, AND MER INHIBITORS AND METHODS OF USE THEREOF” (CMG Pharmaceutical Co., Ltd., priority 2022, published 2025)

Tests used:
Assay type in all cases: biochemical
Conditions in all cases: 10 μM ATP, 60 min, ADP-GLO luminescence
AXL = molecular target: T1, AXL (Homo sapiens, UniProt P30530); assay: Enzymatic assay (ADP-Glo kinase reaction), AXL
T1 sequence (P30530 26-894): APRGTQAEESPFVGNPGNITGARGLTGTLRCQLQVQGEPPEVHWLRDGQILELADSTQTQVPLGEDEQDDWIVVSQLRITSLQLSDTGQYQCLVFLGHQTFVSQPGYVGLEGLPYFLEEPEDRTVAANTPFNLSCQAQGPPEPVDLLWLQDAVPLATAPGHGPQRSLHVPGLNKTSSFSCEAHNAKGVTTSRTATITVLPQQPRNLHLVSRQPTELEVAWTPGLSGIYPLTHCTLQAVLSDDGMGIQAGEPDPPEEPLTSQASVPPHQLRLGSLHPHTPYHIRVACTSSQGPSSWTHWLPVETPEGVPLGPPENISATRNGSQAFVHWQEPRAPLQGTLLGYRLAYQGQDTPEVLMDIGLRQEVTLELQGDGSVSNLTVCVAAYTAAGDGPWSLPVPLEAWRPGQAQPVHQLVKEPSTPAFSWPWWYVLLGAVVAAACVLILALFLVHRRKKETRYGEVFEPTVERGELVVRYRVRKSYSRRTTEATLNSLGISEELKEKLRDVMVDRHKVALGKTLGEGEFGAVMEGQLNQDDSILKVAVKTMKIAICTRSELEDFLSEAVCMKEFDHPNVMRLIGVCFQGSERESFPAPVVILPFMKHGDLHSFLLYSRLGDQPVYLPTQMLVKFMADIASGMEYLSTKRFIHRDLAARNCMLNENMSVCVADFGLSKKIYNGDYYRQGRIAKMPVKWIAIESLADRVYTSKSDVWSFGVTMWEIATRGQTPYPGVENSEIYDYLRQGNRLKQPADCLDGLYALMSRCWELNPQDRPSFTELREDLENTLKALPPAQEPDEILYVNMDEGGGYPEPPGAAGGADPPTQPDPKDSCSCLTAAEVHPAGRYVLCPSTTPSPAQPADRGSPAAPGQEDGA
Procedure, shortened: (§1)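 For both AXL and c-MET, reactions in tyrosine kinase buffer used 0.2 μg/μL poly(Glu4,Tyr1) and 10 μM ATP with serially diluted inhibitor, 60 min at room temperature. ADP formed was read by ADP-Glo luminescence after 40 min reagent incubation.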

c-MET = c-MET (Homo sapiens, UniProt P08581); assay: Enzymatic assay (ADP-Glo kinase reaction), c-MET
c-MET, sequence (P08581 25-1390): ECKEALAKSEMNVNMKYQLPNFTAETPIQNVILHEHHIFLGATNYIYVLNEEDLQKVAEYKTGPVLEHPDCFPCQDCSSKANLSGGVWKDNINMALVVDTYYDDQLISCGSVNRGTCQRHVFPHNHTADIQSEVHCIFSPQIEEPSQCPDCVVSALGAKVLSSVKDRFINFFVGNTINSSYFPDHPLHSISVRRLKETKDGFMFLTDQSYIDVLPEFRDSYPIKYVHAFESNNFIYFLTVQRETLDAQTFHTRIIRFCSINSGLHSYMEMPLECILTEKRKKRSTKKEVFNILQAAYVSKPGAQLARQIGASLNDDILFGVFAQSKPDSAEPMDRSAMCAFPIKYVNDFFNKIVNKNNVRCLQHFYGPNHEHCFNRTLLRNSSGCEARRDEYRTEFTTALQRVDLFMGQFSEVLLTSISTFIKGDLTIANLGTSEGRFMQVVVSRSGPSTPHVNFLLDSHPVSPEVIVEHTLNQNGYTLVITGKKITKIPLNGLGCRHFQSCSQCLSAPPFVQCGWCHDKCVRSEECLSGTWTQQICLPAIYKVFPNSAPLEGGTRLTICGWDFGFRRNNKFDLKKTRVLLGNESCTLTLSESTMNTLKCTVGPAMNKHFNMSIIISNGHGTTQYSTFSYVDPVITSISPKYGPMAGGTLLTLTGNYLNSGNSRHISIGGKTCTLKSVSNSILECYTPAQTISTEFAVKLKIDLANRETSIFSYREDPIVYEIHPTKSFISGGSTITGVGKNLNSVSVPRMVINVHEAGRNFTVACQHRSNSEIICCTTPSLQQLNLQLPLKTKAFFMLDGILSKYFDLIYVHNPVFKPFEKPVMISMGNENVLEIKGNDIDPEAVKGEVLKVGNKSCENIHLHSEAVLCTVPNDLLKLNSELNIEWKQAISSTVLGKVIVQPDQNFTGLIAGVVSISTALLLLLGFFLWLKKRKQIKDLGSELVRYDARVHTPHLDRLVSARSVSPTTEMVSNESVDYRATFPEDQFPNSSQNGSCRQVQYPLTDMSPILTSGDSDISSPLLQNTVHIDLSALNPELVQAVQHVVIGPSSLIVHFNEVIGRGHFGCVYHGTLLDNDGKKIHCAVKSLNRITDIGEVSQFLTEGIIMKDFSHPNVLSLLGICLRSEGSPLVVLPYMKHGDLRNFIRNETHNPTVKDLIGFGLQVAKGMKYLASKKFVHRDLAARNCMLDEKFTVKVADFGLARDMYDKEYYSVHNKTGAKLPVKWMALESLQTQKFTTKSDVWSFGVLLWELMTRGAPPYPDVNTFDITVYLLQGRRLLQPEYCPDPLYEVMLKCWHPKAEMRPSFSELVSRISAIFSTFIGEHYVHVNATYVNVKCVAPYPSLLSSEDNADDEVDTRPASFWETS
Procedure, shortened: as §1

MER = molecular target: T2, MER (Homo sapiens, UniProt Q12866); assay: Enzymatic assay (ADP-Glo kinase reaction), MER
T2 sequence (Q12866 21-999): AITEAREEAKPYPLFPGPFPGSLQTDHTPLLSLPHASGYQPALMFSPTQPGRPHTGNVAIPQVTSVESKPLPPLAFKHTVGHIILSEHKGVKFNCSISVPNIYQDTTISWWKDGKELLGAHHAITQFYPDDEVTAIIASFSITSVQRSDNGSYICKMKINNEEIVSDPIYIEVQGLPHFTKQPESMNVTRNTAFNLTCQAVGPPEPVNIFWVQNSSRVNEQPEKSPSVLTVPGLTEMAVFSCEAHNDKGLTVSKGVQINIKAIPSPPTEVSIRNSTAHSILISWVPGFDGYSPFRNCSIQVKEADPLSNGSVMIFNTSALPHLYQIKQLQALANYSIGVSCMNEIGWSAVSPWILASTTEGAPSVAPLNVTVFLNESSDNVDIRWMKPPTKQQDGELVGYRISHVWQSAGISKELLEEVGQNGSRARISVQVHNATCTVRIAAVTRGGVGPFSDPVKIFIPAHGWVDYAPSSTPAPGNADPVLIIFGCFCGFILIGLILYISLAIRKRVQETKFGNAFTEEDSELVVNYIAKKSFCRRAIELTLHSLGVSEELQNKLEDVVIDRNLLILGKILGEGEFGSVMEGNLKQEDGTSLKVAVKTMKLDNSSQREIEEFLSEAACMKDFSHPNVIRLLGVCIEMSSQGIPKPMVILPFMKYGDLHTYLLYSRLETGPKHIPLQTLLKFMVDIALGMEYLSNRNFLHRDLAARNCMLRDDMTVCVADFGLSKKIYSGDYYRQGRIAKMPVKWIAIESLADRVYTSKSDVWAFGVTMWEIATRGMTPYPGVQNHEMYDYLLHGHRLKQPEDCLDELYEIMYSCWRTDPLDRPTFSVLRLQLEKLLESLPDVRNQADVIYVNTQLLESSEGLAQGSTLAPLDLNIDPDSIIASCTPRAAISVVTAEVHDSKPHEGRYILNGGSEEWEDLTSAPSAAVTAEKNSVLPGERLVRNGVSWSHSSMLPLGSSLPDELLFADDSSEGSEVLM
Procedure, shortened: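 ADP-Glo luminescence assay of MER in tyrosine kinase buffer with 0.2 μg/μL poly(Glu4,Tyr1) substrate and 10 μM ATP. Serially diluted inhibitor reacted 60 min at room temperature. IC50 taken from luminescence after ADP-Glo and detection steps.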

Row | Compound | IC50 (AXL) [nM] | IC50 (c-MET) [nM] | IC50 (MER) [nM]
1 | Cc1nc(Cn2cc(C(=O)Nc3ccc(Oc4ccnc(N)c4C#CCC4CCN(C)CC4)c(F)c3)c(=O)n(-c3ccc(F)cc3)c2=O)cs1 [Example 43, N-(4-((2-amino-3-(3-(1-methylpiperidin-4-yl)prop-1-yn-1-yl)pyridin-4-yl)oxy)-3-fluorophenyl)-3-(4-fluorophenyl)-1-((2-methylthiazol-4-yl)methyl)-2,4-dioxo-1,2,3,4-tetrahydropyrimidine-5-carboxamide] | < 10 | < 10 | < 10
2 | Cc1nc(Cn2cc(C(=O)Nc3ccc(Oc4ccnc(N)c4C#CCC4CCNCC4)c(F)c3)c(=O)n(-c3ccc(F)cc3)c2=O)cs1 [Example 44, N-(4-((2-amino-3-(3-(piperidin-4-yl)prop-1-yn-1-yl)pyridin-4-yl)oxy)-3-fluorophenyl)-3-(4-fluorophenyl)-1-((2-methylthiazol-4-yl)methyl)-2,4-dioxo-1,2,3,4-tetrahydropyrimidine-5-carboxamide] | < 10 | < 10 | < 10
3 | CN1CCC(CC#Cc2c(Oc3ccc(NC(=O)c4nn(C)c(=O)n(-c5ccc(F)cc5)c4=O)cc3F)ccnc2N)CC1 [Example 45, N-(4-((2-amino-3-(3-(1-methylpiperidin-4-yl)prop-1-yn-1-yl)pyridin-4-yl)oxy)-3-fluorophenyl)-4-(4-fluorophenyl)-2-methyl-3,5-dioxo-2,3,4,5-tetrahydro-1,2,4-triazine-6-carboxamide] | < 100 | < 1000 | < 100
4 | Cn1nc(C(=O)Nc2ccc(Oc3ccnc(N)c3C#CCC3CCNCC3)c(F)c2)c(=O)n(-c2ccc(F)cc2)c1=O [Example 46, N-(4-((2-amino-3-(3-(piperidin-4-yl)prop-1-yn-1-yl)pyridin-4-yl)oxy)-3-fluorophenyl)-4-(4-fluorophenyl)-2-methyl-3,5-dioxo-2,3,4,5-tetrahydro-1,2,4-triazine-6-carboxamide] | < 10 | < 100 | < 100
5 | Cn1nc(C(=O)Nc2ccc(Oc3ccnc(N)c3C#CC(C)(C)N3CCNCC3)c(F)c2)c(=O)n(-c2ccc(F)cc2)c1=O [Example 47, N-(4-(2-amino-3-(3-methyl-3-(piperazin-1-yl)but-1-ynyl)pyridin-4-yloxy)-3-fluorophenyl)-4-(4-fluorophenyl)-2-methyl-3,5-dioxo-2,3,4,5-tetrahydro-1,2,4-triazine-6-carboxamide] | < 10 | < 1000 | < 100
6 | Cn1nc(C(=O)Nc2ccc(Oc3ccnc(N)c3C#CC(C)(C)N3CCOCC3)c(F)c2)c(=O)n(-c2ccc(F)cc2)c1=O [Example 48, N-(4-(2-amino-3-(3-methyl-3-morpholinobut-1-ynyl)pyridin-4-yloxy)-3-fluorophenyl)-4-(4-fluorophenyl)-2-methyl-3,5-dioxo-2,3,4,5-tetrahydro-1,2,4-triazine-6-carboxamide] | < 100 | < 100 | < 1000
7 | Cn1nc(C(=O)Nc2ccc(Oc3ccnc(N)c3C#CCN3CCOCC3)c(F)c2)c(=O)n(-c2ccc(F)cc2)c1=O [Example 49, N-(4-(2-amino-3-(3-morpholinoprop-1-ynyl)pyridin-4-yloxy)-3-fluorophenyl)-4-(4-fluorophenyl)-2-methyl-3,5-dioxo-2,3,4,5-tetrahydro-1,2,4-triazine-6-carboxamide] | < 100 | < 1000 | < 100
8 | CC(C)(C#Cc1c(Oc2ccc(NC(=O)c3c[nH]c(=O)n(-c4ccc(F)cc4)c3=O)cc2F)ccnc1N)N1CCOCC1 [Example 50, N-(4-(2-amino-3-(3-methyl-3-morpholinobut-1-ynyl)pyridin-4-yloxy)-3-fluorophenyl)-3-(4-fluorophenyl)-2,4-dioxo-1,2,3,4-tetrahydropyrimidine-5-carboxamide] | < 10 | < 100 | < 100
9 | Nc1nccc(Oc2ccc(NC(=O)c3c[nH]c(=O)n(-c4ccc(F)cc4)c3=O)cc2F)c1C#CCN1CCOCC1 [Example 51, N-(4-(2-amino-3-(3-morpholinoprop-1-ynyl)pyridin-4-yloxy)-3-fluorophenyl)-3-(4-fluorophenyl)-2,4-dioxo-1,2,3,4-tetrahydropyrimidine-5-carboxamide] | < 100 | < 100 | < 100
10 | CC(C)(C#Cc1c(Oc2ccc(NC(=O)c3c[nH]c(=O)n(-c4ccc(F)cc4)c3=O)cc2F)ccnc1N)N1CCNCC1 [Example 52, N-(4-(2-amino-3-(3-methyl-3-(piperazin-1-yl)but-1-ynyl)pyridin-4-yloxy)-3-fluorophenyl)-3-(4-fluorophenyl)-2,4-dioxo-1,2,3,4-tetrahydropyrimidine-5-carboxamide] | < 100 | < 1000 | < 100
11 | Nc1nccc(Oc2ccc(NC(=O)c3c[nH]c(=O)n(-c4ccc(F)cc4)c3=O)cc2F)c1C#CCC1CCNCC1 [Example 53, N-(4-(2-amino-3-(3-(piperidin-4-yl)prop-1-ynyl)pyridin-4-yloxy)-3-fluorophenyl)-3-(4-fluorophenyl)-2,4-dioxo-1,2,3,4-tetrahydropyrimidine-5-carboxamide] | < 10 | < 100 | < 10
12 | CN1CCC(CC#Cc2c(Oc3ccc(NC(=O)c4c[nH]c(=O)n(-c5ccc(F)cc5)c4=O)cc3F)ccnc2N)CC1 [Example 54, N-(4-(2-amino-3-(3-(1-methylpiperidin-4-yl)prop-1-ynyl)pyridin-4-yloxy)-3-fluorophenyl)-3-(4-fluorophenyl)-2,4-dioxo-1,2,3,4-tetrahydropyrimidine-5-carboxamide] | < 10 | < 10 | < 100
13 | CC(C)(C#Cc1c(Oc2ccc(NC(=O)c3cn(C4CCOCC4)c(=O)n(-c4ccc(F)cc4)c3=O)cc2F)ccnc1N)N1CCOCC1 [Example 55, N-(4-(2-amino-3-(3-methyl-3-morpholinobut-1-ynyl)pyridin-4-yloxy)-3-fluorophenyl)-3-(4-fluorophenyl)-2,4-dioxo-1-(tetrahydro-2H-pyran-4-yl)-1,2,3,4-tetrahydropyrimidine-5-carboxamide] | < 100 | < 100 | < 100
14 | Nc1nccc(Oc2ccc(NC(=O)c3cn(C4CCOCC4)c(=O)n(-c4ccc(F)cc4)c3=O)cc2F)c1C#CCN1CCOCC1 [Example 56, N-(4-(2-amino-3-(3-morpholinoprop-1-ynyl)pyridin-4-yloxy)-3-fluorophenyl)-3-(4-fluorophenyl)-2,4-dioxo-1-(tetrahydro-2H-pyran-4-yl)-1,2,3,4-tetrahydropyrimidine-5-carboxamide] | < 100 | < 100 | < 100
